Measured values as given in patent publication US6706663B2, “Herbicidal 3-heterocyclic substituted benzisothiazole and benzisoxazole compounds” (Wyeth, priority 2000, dated 2004).

Tests used:
[1] = tested on: ECHCG (Echinochloa crus-galli); test: Preemergence herbicidal evaluation; assay type: in vivo, (L.) Beau; conditions: preemergence, rated 4-5 weeks after treatment
Summary of the method: (§1)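 Greenhouse preemergence test: freshly planted cups were sprayed once with an aqueous acetone solution of compound. Injury was judged visually on a 0–9 scale relative to a control, four to five weeks later.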

SETVI (Setaria viridis) [2] = test: Preemergence herbicidal evaluation; assay type: in vivo, (L.) Beau; conditions: preemergence, rated 4-5 weeks after treatment
Summary of the method: as §1

[3] = tested on: ABUTH (Abutilon theophrasti); test: Preemergence herbicidal evaluation; assay type: in vivo, Medic.; conditions: preemergence, rated 4-5 weeks after treatment
[4] = tested on: GLXMAW (Soybean, Williams); test: Preemergence herbicidal evaluation; assay type: in vivo, Glycine max, (L.) Merr. cv Williams; conditions: preemergence, rated 4-5 weeks after treatment
ZEAMX (Corn, Field) [5] = test: Preemergence herbicidal evaluation; assay type: in vivo, Zea mays, L.; conditions: preemergence, rated 4-5 weeks after treatment
IPOSS (Ipomoea Spp.) [6] = test: Preemergence herbicidal evaluation; assay type: in vivo; conditions: rated 4-5 weeks after treatment
Text: (§2) Results of herbicide evaluation are expressed on a rating scale (0-9). The scale is based upon a visual observation of plant stand, vigor, malformation, size, chlorosis and overall plant appearance as compared with a control.
The preemergence herbicidal activity of the test compounds of the present invention is exemplified by the following tests in which the seeds of a variety of monocotyledonous and dicotyledonous plants are separately mixed with potting soil and planted on top of approximately one inch of soil in separate pint cups. After planting, the cups are sprayed with the selected aqueous acetone solution containing test compound in sufficient quantity to provide the equivalent of about […] per hectare of test compound per cup. The treated cups are then placed on greenhouse benches, watered and cared for in accordance with conventional greenhouse procedures. From four to five weeks after treatment, the tests are terminated and each cup is examined and rated according to the rating system provided in Example 87. The plant species used and the compounds evaluated are the same as those shown in Example 87.

ORYSAT (Rice, Tebonnet) [7] = test: Preemergence herbicidal evaluation; assay type: in vivo, Oryza sativa, (L.) Tebonnet; conditions: preemergence, rated 4-5 weeks after treatment
[8] = tested on: TRZAWR (Wheat, Winter, cv Riband); test: Preemergence herbicidal evaluation; assay type: in vivo, Triticum aestivum; conditions: preemergence, rated 4-5 weeks after treatment
Summary of the method: as §1

GALAP (Galium aparine) [9] = test: Preemergence herbicidal evaluation; assay type: in vivo; conditions: preemergence, rated 4-5 weeks after treatment
Summary of the method: as §1

[10] = tested on: CHEAL (Chenopodium album); test: Preemergence herbicidal evaluation; assay type: in vivo, L.; conditions: preemergence, rated 4-5 weeks after treatment
Summary of the method: as §1

[11] = tested on: AMBEL (Ambrosia artemisifolia); test: Preemergence herbicidal evaluation; assay type: in vivo, L.; conditions: preemergence, rated 4-5 weeks after treatment
Summary of the method: as §1

ZEAMX (Corn, Field) [12] = test: Postemergence herbicidal evaluation; assay type: in vivo, Zea mays, L.; conditions: postemergence
Summary of the method: (§3)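 Seedlings grown for about two weeks were sprayed postemergence and then kept under standard greenhouse care. Injury was rated visually 4–5 weeks after treatment on a 0–9 scale against untreated controls, and ratings from repeat tests were averaged.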

ORYSAT (Rice, Tebonnet) [13] = test: Postemergence herbicidal evaluation; assay type: in vivo, Oryza sativa, (L.) Tebonnet; conditions: postemergence, rate 0.3000 kg/ha
Summary of the method: as §3

[14] = tested on: CHEAL (Chenopodium album); test: Postemergence herbicidal evaluation; assay type: in vivo, L.; conditions: postemergence
Summary of the method: as §3

[15] = tested on: AMBEL (Ambrosia artemisifolia); test: Postemergence herbicidal evaluation; assay type: in vivo, L.; conditions: postemergence
Summary of the method: as §3

[16] = tested on: IPOHE (Ipomoea hederacea); test: Postemergence herbicidal evaluation; assay type: in vivo, (L.) Jacq.; conditions: postemergence
Summary of the method: as §3

GLXMA (Soybean) = test: Postemergence herbicidal evaluation; assay type: in vivo, Glycine max, (L.) Merr.; conditions: postemergence
Method: (§4) In the tests, seedling plants are grown in jiffy flats for about two weeks. The test compounds are dispersed in 50/50 acetone/water mixtures containing 0.5% TWEEN® 20, a polyoxyethylene sorbitan monolaurate surfactant of Atlas Chemical Industries, in sufficient quantities to provide the equivalent of about 0.0040 kg to 1.000 kg per hectare of active compound when applied to the plants through a spray nozzle operating at 40 psi for a predetermined time. After spraying, the plants are placed on greenhouse benches and are cared for in accordance with conventional greenhouse procedures. From four to five weeks after treatment, the seedling plants are examined and rated according to the rating system set forth below. Where more than one test is involved for a given compound, the data are averaged.
as §2

IPOSS (Ipomoea Spp.) [17] = test: Postemergence herbicidal evaluation; assay type: in vivo; conditions: rate 0.3000 kg/ha
Method: as §4, §2

GALAP (Galium aparine) [18] = test: Postemergence herbicidal evaluation; assay type: in vivo; conditions: postemergence, rate 0.3000 kg/ha
Summary of the method: as §3

SETVI (Setaria viridis) [19] = test: Postemergence herbicidal evaluation; assay type: in vivo, (L.) Beau; conditions: postemergence
Summary of the method: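 Postemergence foliar spray on two-week-old seedlings, dose equivalent to about 0.0040 to 1.000 kg/ha. Ratings use a 0-9 visual scale relative to control at four to five weeks.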

[20] = tested on: ABUTH (Abutilon theophrasti); test: Postemergence herbicidal evaluation; assay type: in vivo, Medic.; conditions: postemergence
Summary of the method: as §3

[21] = tested on: ECHCG (Echinochloa crus-galli); test: Postemergence herbicidal evaluation; assay type: in vivo, (L.) Beau; conditions: postemergence
Summary of the method: as §3

[22] = tested on: GLXMAW (Soybean, Williams); test: Postemergence herbicidal evaluation; assay type: in vivo, Glycine max, (L.) Merr. cv Williams; conditions: postemergence, rate 0.3000 kg/ha
Summary of the method: as §3

[23] = tested on: TRZAWR (Wheat, Winter, cv Riband); test: Postemergence herbicidal evaluation; assay type: in vivo, Triticum aestivum; conditions: postemergence, rate 0.3000 kg/ha
Summary of the method: as §3

Cn1c(C(F)(F)F)cc(=O)n(-c2ccc3snc(C4(O)N=C(c5ccccc5)NC4=O)c3c2)c1=O (stereo not shown) [Compound 94, 3-[3-(4-hydroxy-5-oxo-2-phenyl-2-imidazolin-4-yl)-1,2-benzisothiazol-5-yl]-1-methyl-6-(trifluoromethyl)uracil]
Preemergence herbicidal rating ECHCG ([1]; rate 1.0000 kg/ha): 2.0
Preemergence herbicidal rating SETVI (SETVI (Setaria viridis) [2]; rate 1.0000 kg/ha): 5.0
Preemergence herbicidal rating ABUTH ([3]; rate 1.0000 kg/ha): 7.0
Preemergence herbicidal rating GLXMAW ([4]; rate 1.0000 kg/ha): 5.0
Preemergence herbicidal rating ZEAMX (ZEAMX (Corn, Field) [5]; rate 1.0000 kg/ha): 3.0
Preemergence herbicidal rating IPOSS (IPOSS (Ipomoea Spp.) [6]; rate 1.0000 kg/ha): 7.0
Preemergence herbicidal rating ORYSAT (ORYSAT (Rice, Tebonnet) [7]; rate 1.0000 kg/ha): 6.0
Preemergence herbicidal rating TRZAWR ([8]; rate 1.0000 kg/ha): 5.0
Preemergence herbicidal rating GALAP (GALAP (Galium aparine) [9]; rate 1.0000 kg/ha): 8.0
Preemergence herbicidal rating CHEAL ([10]; rate 1.0000 kg/ha): 8.0
Preemergence herbicidal rating AMBEL ([11]; rate 1.0000 kg/ha): 5.0

Cn1c(C(F)(F)F)cc(=O)n(-c2ccc3snc(C4(O)C(=O)NC(=N)C4(C)C)c3c2)c1=O (stereo not shown) [Compound 96]
ZEAMX herbicidal rating (ZEAMX (Corn, Field) [12]; rate 0.0320 kg/ha): 3.0
ZEAMX herbicidal rating (ZEAMX (Corn, Field) [12]; rate 0.0620 kg/ha): 3.0
ZEAMX herbicidal rating (ZEAMX (Corn, Field) [12]; rate 0.3000 kg/ha): 2.0
Preemergence herbicidal rating ECHCG ([1]; rate 0.3000 kg/ha): 0.0
Preemergence herbicidal rating SETVI (SETVI (Setaria viridis) [2]; rate 0.3000 kg/ha): 0.0
Preemergence herbicidal rating ABUTH ([3]; rate 0.3000 kg/ha): 6.0
ORYSAT herbicidal rating (ORYSAT (Rice, Tebonnet) [13]): 0.0
CHEAL herbicidal rating ([14]; rate 0.0320 kg/ha): 3.0
CHEAL herbicidal rating ([14]; rate 0.0620 kg/ha): 4.0
CHEAL herbicidal rating ([14]; rate 0.3000 kg/ha): 9.0
AMBEL herbicidal rating ([15]; rate 0.0320 kg/ha): 4.0
AMBEL herbicidal rating ([15]; rate 0.0620 kg/ha): 5.0
AMBEL herbicidal rating ([15]; rate 0.3000 kg/ha): 6.0
IPOHE herbicidal rating ([16]; rate 0.0320 kg/ha): 3.0
IPOHE herbicidal rating ([16]; rate 0.0620 kg/ha): 6.0
GLXMA herbicidal rating (GLXMA (Soybean); rate 0.0320 kg/ha): 5.5
GLXMA herbicidal rating (GLXMA (Soybean); rate 0.0620 kg/ha): 6.0
IPOSS herbicidal rating (IPOSS (Ipomoea Spp.) [17]): 3.0
GALAP herbicidal rating (GALAP (Galium aparine) [18]): 0.0
Preemergence herbicidal rating GLXMAW ([4]; rate 0.3000 kg/ha): 0.0
Preemergence herbicidal rating ZEAMX (ZEAMX (Corn, Field) [5]; rate 0.3000 kg/ha): 0.0
SETVI herbicidal rating (SETVI (Setaria viridis) [19]; rate 0.0320 kg/ha): 2.0
SETVI herbicidal rating (SETVI (Setaria viridis) [19]; rate 0.0620 kg/ha): 2.0
SETVI herbicidal rating (SETVI (Setaria viridis) [19]; rate 0.3000 kg/ha): 4.0
Preemergence herbicidal rating IPOSS (IPOSS (Ipomoea Spp.) [6]; rate 0.3000 kg/ha): 4.0
ABUTH herbicidal rating ([20]; rate 0.0320 kg/ha): 3.0
ABUTH herbicidal rating ([20]; rate 0.0620 kg/ha): 4.0
ABUTH herbicidal rating ([20]; rate 0.3000 kg/ha): 9.0
Preemergence herbicidal rating ORYSAT (ORYSAT (Rice, Tebonnet) [7]; rate 0.3000 kg/ha): 0.0
Preemergence herbicidal rating TRZAWR ([8]; rate 0.3000 kg/ha): 0.0
ECHCG herbicidal rating ([21]; rate 0.0320 kg/ha): 1.0
ECHCG herbicidal rating ([21]; rate 0.0620 kg/ha): 2.0
ECHCG herbicidal rating ([21]; rate 0.3000 kg/ha): 0.0
Preemergence herbicidal rating GALAP (GALAP (Galium aparine) [9]; rate 0.3000 kg/ha): 6.0
GLXMAW herbicidal rating [22]: 5.0
TRZAWR herbicidal rating [23]: 0.0
Preemergence herbicidal rating CHEAL ([10]; rate 0.3000 kg/ha): 7.0
Preemergence herbicidal rating AMBEL ([11]; rate 0.3000 kg/ha): 0.0
